Measurements: paper PMC8222254, “Self-assembly of an anion receptor with metal-dependent kinase inhibition and potent in vitro anti-cancer properties” (Nature Communications, 2021)
“And” between values parts separate entries of the source, which are not always exact repeats. Equal values may be shown once.

Key:
Assay in all cases: Kinase inhibition screen, cell-free 33P ATP assay at 10 μM
Assay type in all cases: biochemical
[1] = molecular target: T1, 140 purified human kinases (Homo sapiens, UniProt Q9UKI8)
T1 sequence (Q9UKI8 1-766): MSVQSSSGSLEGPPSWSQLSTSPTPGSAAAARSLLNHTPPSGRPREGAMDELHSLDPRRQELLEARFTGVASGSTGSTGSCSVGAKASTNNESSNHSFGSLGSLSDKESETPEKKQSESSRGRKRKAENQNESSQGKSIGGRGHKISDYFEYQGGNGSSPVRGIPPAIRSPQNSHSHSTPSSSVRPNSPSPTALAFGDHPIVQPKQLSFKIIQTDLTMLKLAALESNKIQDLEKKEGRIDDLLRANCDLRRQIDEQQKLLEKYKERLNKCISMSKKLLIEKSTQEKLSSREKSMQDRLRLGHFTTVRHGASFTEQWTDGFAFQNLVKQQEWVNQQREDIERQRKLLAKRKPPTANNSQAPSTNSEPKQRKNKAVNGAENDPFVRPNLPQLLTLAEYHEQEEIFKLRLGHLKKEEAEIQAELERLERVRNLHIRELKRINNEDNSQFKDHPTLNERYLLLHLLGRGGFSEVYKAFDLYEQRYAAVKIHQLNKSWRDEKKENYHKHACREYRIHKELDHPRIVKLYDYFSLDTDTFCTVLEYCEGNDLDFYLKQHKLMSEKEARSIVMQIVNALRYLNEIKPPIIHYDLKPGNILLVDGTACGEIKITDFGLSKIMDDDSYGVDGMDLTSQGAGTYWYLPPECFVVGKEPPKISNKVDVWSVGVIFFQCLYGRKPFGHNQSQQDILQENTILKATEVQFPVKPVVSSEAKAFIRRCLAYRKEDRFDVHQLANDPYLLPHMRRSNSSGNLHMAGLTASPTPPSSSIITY
Method in brief: (§1)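 Radiometric ^33P ATP cell-free format with purified enzymes; both complexes run at 10 μM in duplicate, results plotted on a kinome map via HGNC symbols.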

[2] = molecular target: T2, 140 purified human kinases (Homo sapiens, UniProt P43403); details: for % Activity inhibition Mean / % Activity inhibition Run 1 / % Activity inhibition Run 2 / % Activity remaining Run 1 / % Activity remaining Run 2: 10 µM
T2 sequence (P43403 1-619): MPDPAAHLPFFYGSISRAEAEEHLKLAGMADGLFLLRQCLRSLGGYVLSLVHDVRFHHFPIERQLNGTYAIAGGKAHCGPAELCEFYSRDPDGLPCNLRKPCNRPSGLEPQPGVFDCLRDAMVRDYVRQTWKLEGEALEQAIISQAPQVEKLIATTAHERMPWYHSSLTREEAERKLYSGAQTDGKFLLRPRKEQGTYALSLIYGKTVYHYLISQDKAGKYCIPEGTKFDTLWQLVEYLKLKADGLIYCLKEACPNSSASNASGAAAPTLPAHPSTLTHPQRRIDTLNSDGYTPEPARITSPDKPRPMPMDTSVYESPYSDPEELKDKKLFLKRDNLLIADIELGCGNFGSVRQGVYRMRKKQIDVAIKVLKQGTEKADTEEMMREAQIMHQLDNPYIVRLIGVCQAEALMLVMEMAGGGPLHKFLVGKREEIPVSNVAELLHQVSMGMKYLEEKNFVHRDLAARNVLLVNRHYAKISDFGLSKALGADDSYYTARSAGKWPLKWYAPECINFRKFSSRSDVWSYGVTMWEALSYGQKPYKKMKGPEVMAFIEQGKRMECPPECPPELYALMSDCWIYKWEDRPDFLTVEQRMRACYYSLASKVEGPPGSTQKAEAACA
Method in brief: as §1

[3] = molecular target: T3, 140 purified human kinases (Homo sapiens, UniProt P29323)
T3 sequence (P29323 19-1055): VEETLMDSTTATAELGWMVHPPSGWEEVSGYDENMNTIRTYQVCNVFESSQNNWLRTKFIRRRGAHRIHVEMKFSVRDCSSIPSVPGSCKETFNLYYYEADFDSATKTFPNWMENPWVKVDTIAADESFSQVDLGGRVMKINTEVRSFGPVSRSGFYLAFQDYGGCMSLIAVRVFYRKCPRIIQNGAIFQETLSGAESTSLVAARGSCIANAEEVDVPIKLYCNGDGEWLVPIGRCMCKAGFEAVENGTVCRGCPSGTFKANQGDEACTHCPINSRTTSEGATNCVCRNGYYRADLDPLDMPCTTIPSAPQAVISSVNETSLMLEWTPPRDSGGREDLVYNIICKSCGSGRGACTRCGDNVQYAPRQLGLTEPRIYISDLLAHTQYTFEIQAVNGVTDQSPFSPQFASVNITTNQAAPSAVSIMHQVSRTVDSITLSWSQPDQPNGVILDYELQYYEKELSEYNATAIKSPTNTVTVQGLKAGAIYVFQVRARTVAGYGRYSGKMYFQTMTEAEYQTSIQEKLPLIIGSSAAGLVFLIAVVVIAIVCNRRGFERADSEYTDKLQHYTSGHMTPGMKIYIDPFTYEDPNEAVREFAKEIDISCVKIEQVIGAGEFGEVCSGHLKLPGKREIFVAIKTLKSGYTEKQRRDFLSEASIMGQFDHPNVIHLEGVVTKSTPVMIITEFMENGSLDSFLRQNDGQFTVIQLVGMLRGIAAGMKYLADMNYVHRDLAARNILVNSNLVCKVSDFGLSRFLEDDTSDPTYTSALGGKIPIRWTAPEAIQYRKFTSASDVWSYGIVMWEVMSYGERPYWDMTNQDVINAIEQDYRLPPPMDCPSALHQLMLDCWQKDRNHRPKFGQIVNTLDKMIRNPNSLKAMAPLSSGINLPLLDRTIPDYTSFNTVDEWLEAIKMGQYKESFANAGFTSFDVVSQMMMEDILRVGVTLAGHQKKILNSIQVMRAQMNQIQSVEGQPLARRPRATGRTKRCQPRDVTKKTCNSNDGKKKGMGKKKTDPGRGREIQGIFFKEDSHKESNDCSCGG
Method in brief: as §1

Compound: CC(=O)[O-].CC(=O)[O-].CC(=O)[O-].CC(=O)[O-].CC(=O)[O-].CC(=O)[O-].[Zn+2].[Zn+2].[Zn+2].c1ccc(-c2csc(NCCN(CCNc3nc(-c4ccccn4)cs3)CCNc3nc(-c4ccccn4)cs3)n2)nc1.c1ccc(-c2csc(NCCN(CCNc3nc(-c4ccccn4)cs3)CCNc3nc(-c4ccccn4)cs3)n2)nc1 [[L2Zn3]6+]
- % Inhibition, Mean ([1]; TLK1): -0.3%
- mean % activity ([1]; TLK1): 100%
- % activity ([1]; TLK1, duplicate runs): 92% and 109%
- % Inhibition, Mean ([2]; ZAP70): 89%
- % Inhibition, Run 1 / Run 2 ([2]; ZAP70): 91% and 88%
- mean % activity ([2]; ZAP70): 11%
- % Activity inhibition Mean ([2]; ZAP70): 89.0%
- % Activity inhibition Run 1 ([2]; ZAP70): 90%
- % Activity inhibition Run 2 ([2]; ZAP70): 88%
- % Activity remaining Run 1 ([2]; ZAP70): 10%
- % Activity remaining Run 2 ([2]; ZAP70): 12%
- % activity ([2]; ZAP70, duplicate runs): 9.5% and 12%
- % Inhibition, Mean ([3]; EPH-B2): 88%
- % Inhibition, Run 1 / Run 2 ([3]; EPH-B2): 89% and 87%
- mean % activity ([3]; EPH-B2): 12%
- % Activity inhibition Mean ([3]; EPH-B2, 10 µM): 88.0%
- % Activity inhibition Run 1 ([3]; EPH-B2, 10 µM): 89%
- % Activity inhibition Run 2 ([3]; EPH-B2, 10 µM): 87%
- % Activity remaining Run 1 ([3]; EPH-B2, 10 µM): 11%
- % Activity remaining Run 2 ([3]; EPH-B2, 10 µM): 13%
- % activity ([3]; EPH-B2, duplicate runs): 11% and 13%

Compound: [Cu+2].[Cu+2].[Cu+2].c1ccc(-c2csc(NCCN(CCNc3nc(-c4ccccn4)cs3)CCNc3nc(-c4ccccn4)cs3)n2)nc1.c1ccc(-c2csc(NCCN(CCNc3nc(-c4ccccn4)cs3)CCNc3nc(-c4ccccn4)cs3)n2)nc1 [[L2Cu3]6+]
- % Activation, Mean value ([1]; TLK1): 16%
- % Inhibition Run 1 ([1]; TLK1): -7.2%
- % Inhibition Run 2 ([1]; TLK1): -24.2%
- % Inhibition, Mean ([1]; TLK1): -16%
- mean % activity ([1]; TLK1): 116%
- % activity ([1]; TLK1, Run 1): 107.2%
- % activity ([1]; TLK1, Run 2): 124.2%
- % Activity Run 1 ([1]; TLK1, 10 µM): 107.20%
- % Activity Run 2 ([1]; TLK1, 10 µM): 124.20%
- % Inhibition Run 1 ([2]; ZAP70): 94%
- % Inhibition Run 2 ([2]; ZAP70): 89.2%
- % Inhibition, Mean ([2]; ZAP70): 92%
- mean % activity ([2]; ZAP70): 8%
- % activity ([2]; ZAP70, Run 1): 6%
- % activity ([2]; ZAP70, Run 2): 10.8%
- % Activity inhibition Mean ([2]; ZAP70): 91.6%
- % Activity inhibition Run 1 ([2]; ZAP70): 94%
- % Activity inhibition Run 2 ([2]; ZAP70): 89.2%
- % Activity remaining Run 1 ([2]; ZAP70): 6.00%
- % Activity remaining Run 2 ([2]; ZAP70): 10.80%
- % Inhibition Run 1 ([3]; EPH-B2): 57.3%
- % Inhibition Run 2 ([3]; EPH-B2): 57.8%
- % Inhibition, Mean ([3]; EPH-B2): 58%
- mean % activity ([3]; EPH-B2): 42%
- % activity ([3]; EPH-B2, Run 1): 42.7%
- % activity ([3]; EPH-B2, Run 2): 42.2%
